According to patent US20120276064A1, “METHODS AND COMPOSITIONS FOR REJUVENATION AND EXPANSION OF STEM CELLS” (priority 2011, published 2012):

Experiments:
[1] = tested on: p38 signaling (phosphorylation of the p38 substrate MK2); test: Phospho-MK2 flow cytometry in primary myoblasts stimulated with anisomycin and TNF; type: cell-based; conditions: primary mouse myoblasts, 10 μM pretreatment one hour, anisomycin 1 μg/ml + TNF 50 ng/ml 30 min
Description: Phospho-MK2 flow cytometry. To analyze p38 signaling, the phosphorylation of MK2, a readout of p38 kinase activity, was assayed by flow cytometry. Primary mouse myoblasts were isolated as previously described. Myoblasts were cultured on collagen-coated tissue-culture plastic dishes in myogenic cell medium and were maintained at 37° C. in 5% CO2. Myoblasts were pretreated with 0.1% DMSO carrier control or 10 μM SB202190 for one-hour and then were stimulated with anisomycin (1 μg/ml; Sigma) and TNF (50 ng/ml; R&D Systems, Minneapolis, Minn.) for 30 minutes or mock buffer (PBS). Pretreatments and stimuli were added in 50× spike solutions. After 15 minutes, cells were collected from hydrogel cultures by incubation 0.5% trypsin in PBS for 2 min at 37° C. Cells were fixed with 1.5% paraformaldehyde in PBS, permeabilized in methanol at −80° C., and stained with an AlexFluor488-conjugated antibody reactive to the phosphorylated (Thr334) form of MK2 (Cell Signaling). Cells were analyzed for phospho-MK2 positivity on a modified FACStar Plus flow cytometer using FACS Diva software (BD Biosciences).

functional MuSCs = test: Limiting dilution analysis and model prediction of functional MuSCs; set-up: species or system mouse
Description: Limiting dilution analysis and model prediction. To calculate the effective number of functional MuSCs in any transplanted cell population, the transplant engraftment efficiency was related to the number of cells transplanted (across a range of transplanted cell numbers) using an exponential stem-cell limiting dilution model:
% engraftment=100%·[1-exp [(βsample)·(# cells transplantedsample)] [eqn. 1]
where β is an exponential coefficient fit from experimental data. This model fit well to experimental data from a variety of cell conditions (R^2=0.89-1.00; see FIG. 16C). Using this model, the number of functional MuSCs (e.g. defined as equivalent to freshly isolated young MuSCs) within any given population can be calculated:
# Functional MuSCssample=(βSample/βYng,Fresh)˜(# cellssample). [eqn. 2]
The number of functional MuSCs arising from the progeny of each MuSC initially seeded in the cell culture experiments can be predicted by taking into account the measured cell proliferation in culture (see FIG. 2D). The transplant engraftment percentage of the cell culture progeny from any starting MuSC cell number can be predicted using the measured cell proliferation data and the fit exponential model parameter β:
Predicted % engraftment=100%·[1-exp [(βsample)·(starting cell #)·(proliferation fold-changesample)]]. [Eqn. 3]

[2] = tested on: old MuSCs transplanted into notexin-injured old muscle; test: Syngeneic transplantation of cultured old MuSC progeny into notexin-injured old C57BL/6 muscles, engraftment; type: in vivo, mouse
Description: MuSC transplantation. MuSCs were transplanted immediately following FACS isolation or after collection from cell culture directly into the tibialis anterior muscle of recipient mice as previously described. Cells from GFP/Luciferase or Myf5^nLacZl+/Luciferase mice were transplanted into gender-matched, hindlimb-irradiated NOD/SCID (Jackson) mice. NOD/SCID (2-4 months of age, median 2 months) mice were anesthetized with ketamine (2.4 mg per mouse) and xylazine (240 μg per mouse) by intraperitoneal injection then were irradiated by a single dose of 18 Gy administered to the hindlimbs, with the rest of the body shielded in a lead jig. Transplantation was performed within three days post-irradiation. […] Freshly isolated or cultured cells were counted by hemocytometer and resuspended at desired cell concentrations in PBS with 2.5% goat serum and 1 mM EDTA. Cells were collected from hydrogel cultures by incubation with 0.5% trypsin in PBS for 2 min at 37° C. and counted using a hemocytometer. […]
Bioluminescence imaging. […] Digital images were recorded and analyzed using Living Image software (Caliper LifeSciences). Images were analyzed with a consistent region-of-interest (ROI) placed over each hindlimb to calculate a bioluminescence signal. […]

Q: How did the “p38 signaling activity / MK2 phosphorylation” value [1] turn out when `Oc1ccc(-c2nc(-c3ccncc3)c(-c3ccc(F)cc3)[nH]2)cc1` [SB202190] was run?
A: Its value is “prevents MK2 phosphorylation”.

Q: What about the “p38 signaling activity / MK2 phosphorylation” value ([1]; listed as SB) of the same compound?
A: The value was “substantially attenuated p38 signaling activity”.

Q: And the “Proportion of functional MuSCs” value (functional MuSCs; old MuSCs on soft hydrogels with SB treatment, limiting dilution model)?
A: Its value is 9%.

Q: What about the “Predicted transplant engraftment of the culture progeny of 10 old MuSCs” value (functional MuSCs; old MuSCs treated with SB, model prediction) of the same compound?
A: Its value is 76%.

Q: What about the “Increase in absolute number of functional stem cells relative to freshly isolated old MuSCs” value (functional MuSCs; old MuSCs, soft hydrogel + SB, one week, mathematical modeling) of the same compound?
A: Its value is 7 fold.

Q: What about the “Improvement in the proportion of functional MuSCs” value (functional MuSCs; old MuSCs, soft hydrogel with vs without SB, limiting dilution model) of the same compound?
A: Its value is 10 fold.

Q: And the “Contribution to myofibers (histology)” value ([2]; progeny of 100 SB-treated old MuSCs, old recipient muscle, two months after transplantation)?
A: Its value is “substantial contribution to myofibers”.

Q: What about the “Engraftment frequency in aged syngeneic recipient muscle” value ([2]; progeny of 100 old MuSCs cultured with 10 μM SB, notexin-injured old C57BL/6 mice, one month) of the same compound?
A: The value was 88%.
